Measured values as given in the supplement of paper PMC7840683.
Counter-ions that a name gives are not always drawn. ± gives the standard deviation of the averaged measurements.

Test system: HepaRG
Test: LDH release cytotoxicity, % of total lysis control; higher = more cytotoxic
Settings: 48 h
Outline: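 The CytoTox-ONE kit was used to read LDH in 50 µL spent medium as resorufin fluorescence on a Tecan Safire, with 0.1% Triton X added to total lysis wells. Beforehand, single-lot HepaRG cells on collagen I-coated 96-well plates had been exposed in duplicate for 48 h to eight-point half-log series (top 100 µM) in serum-free induction medium containing 0.5% DMSO. Percent cytotoxicity was normalized against on-plate vehicle and total lysis controls and averaged over duplicates.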

| Compound | LDH release cytotoxicity (0.03162 µM) [%] | LDH release cytotoxicity (0.1 µM) [%] | LDH release cytotoxicity (0.3162278 µM) [%] | LDH release cytotoxicity (1 µM) [%] | LDH release cytotoxicity (3.16228 µM) [%] | LDH release cytotoxicity (10 µM) [%] | LDH release cytotoxicity (31.6228 µM) [%] | LDH release cytotoxicity (100 µM) [%] | other results |
| --- | --- | --- | --- | --- | --- | --- | --- | --- | --- |
| C/C=C/C=C/C(=O)O [2E,4E-Hexadienoic acid] | -0.745 ± 0.091 | -1.89 ± 0.18 | -1.82 ± 0.54 | -1.07 ± 0.45 | -1.03 ± 0.12 | -1.19 ± 0.023 | -0.323 ± 0.42 | 0.653 ± 1.2 |  |
| CC#Cc1cc(C)nc(Nc2ccccc2)n1 [Mepanipyrim] | -1.35 ± 0.26 | -1.3 ± 0.77 | -1.45 ± 0.36 | -1.69 ± 0.92 | -0.377 ± 0.77 | 0.835 ± 1.1 | 2.41 ± 0.37 | 11.4 ± 0.23 |  |
| OB(O)O [Boric acid (H3BO3)] | -0.989 ± 0.041 | -0.753 ± 1.6 | 0.0737 ± 1.3 | -0.582 ± 0.41 | -0.954 ± 0.45 | -0.232 ± 0.15 | 0.368 ± 0.65 | 0.851 ± 0.63 |  |
| CCCCCCOC(=O)c1ccccc1C(=O)OCCCCCC [Dihexyl phthalate] | -0.113 ± 0.13 | -2.29 ± 0.55 | -1.07 ± 0.072 | -1.78 ± 0.38 | -2.06 ± 0.53 | 4.57 ± 0.29 | 25.3 ± 3.5 | 81 ± 8.9 |  |
| Cn1c(=O)c2c(ncn2C)n(C)c1=O [Caffeine] | -1.5 ± 0.32 | -0.664 ± 0.51 | -1.14 ± 0.54 | -0.9619 ± 0.0096 | -1.02 ± 0.75 | -0.778 ± 0.5 | -0.135 ± 0.4 | 1.03 ± 1.2 |  |
| CCCCCCc1ccc(O)cc1O [4-Hexylresorcinol] | -1.87 ± 0.26 | -0.709 ± 0.041 | -0.736 ± 1.1 | -1.64 ± 0.45 | -1.6 ± 1 | -1.36 ± 0.29 | 0.152 ± 0.4 | 1.18 ± 0.84 |  |
| CCCCc1nc2cccnc2n1Cc1ccc(-c2ccccc2-c2nnn[nH]2)cc1 | -0.82 ± 0.17 | -1.42 ± 0.13 | -0.874 ± 0.059 | -0.211 ± 0.38 | -0.956 ± 0.67 | -0.404 ± 0.78 | -0.609 ± 1.2 | 1.6 ± 1.9 |  |
| CCCN(CCC)C(=O)SCC [EPTC] | 0.307 ± 0.45 | -0.433 ± 0.099 | -0.271 ± 0.12 | -0.35 ± 0.45 | -0.208 ± 0.25 | 0.499 ± 0.14 | 0.312 ± 0.64 | 0.622 ± 0.63 |  |
| CCC(=O)C(CC(C)N(C)C)(c1ccccc1)c1ccccc1 (configuration not stated) [Methadone hydrochloride] |  |  |  |  |  |  |  |  | LDH release cytotoxicity (0.0229265 µM): -1.18 ± 0.096%; LDH release cytotoxicity (0.0725 µM): -0.8 ± 0.26%; LDH release cytotoxicity (0.2292651 µM): -1.01 ± 0.75%; LDH release cytotoxicity (0.725 µM): -1.59 ± 0.11%; LDH release cytotoxicity (2.29265 µM): -0.919 ± 0.09%; LDH release cytotoxicity (7.25 µM): -0.638 ± 0.73%; LDH release cytotoxicity (22.926513 µM): 0.191 ± 1.1%; LDH release cytotoxicity (72.5 µM): 7.87 ± 0.83% |
| c1ccc2[nH]nnc2c1 [1,2,3-Benzotriazole] | -1.49 ± 0.2 | -1.03 ± 0.94 | -1.12 ± 0.52 | -1.12 ± 0.55 | -1.23 ± 0.65 | -0.765 ± 0.061 | 0.381 ± 0.99 | 1.81 ± 0.42 |  |
| Cc1cn(C2CC(N=[N+]=[N-])C(CO)O2)c(=O)nc1O (configuration not stated) [3'-Azido-3'-deoxythymidine] | -0.42 ± 0.53 | -0.0584 ± 0.55 | -1.1 ± 0.81 | -0.757 ± 0.25 | -0.57 ± 0.61 | -0.541 ± 0.24 | -0.814 ± 0.1 | -0.709 ± 0.47 |  |
| CCOC(=O)OC(C)OC(=O)c1ccc2c(c1)cc(C(=O)NC1CCN(C(C)C)CC1)n2Cc1cc(-c2ccc(Cl)s2)on1 (configuration not stated) [AVE6324] |  |  |  |  |  |  |  |  | LDH release cytotoxicity (0.02988 µM): -0.39 ± 1.6%; LDH release cytotoxicity (0.0945 µM): -0.573 ± 0.22%; LDH release cytotoxicity (0.298835 µM): -0.553 ± 1.2%; LDH release cytotoxicity (0.945 µM): -1.09 ± 0.69%; LDH release cytotoxicity (2.98835 µM): -0.186 ± 0.77%; LDH release cytotoxicity (9.45 µM): 1.15 ± 0.64%; LDH release cytotoxicity (29.8835 µM): 1.55 ± 1.8%; LDH release cytotoxicity (94.5 µM): 48.4 ± 7.1% |
| Cc1c(F)c(F)c(COC(=O)C2C(C=C(Cl)C(F)(F)F)C2(C)C)c(F)c1F (configuration not stated) [Tefluthrin] | -0.665 ± 0.058 | -0.785 ± 0.14 | -1.49 ± 0.56 | -1.6 ± 0.5 | -1.72 ± 0.74 | -0.97 ± 0.31 | -0.478 ± 0.69 | -0.883 ± 1 |  |
| CCC(C)(c1ccc(O)cc1)c1ccc(O)cc1 [Bisphenol B] | -0.0728 ± 0.78 | 0.29 ± 0.38 | 0.714 ± 0.49 | 2.34 ± 1.5 | 1.11 ± 0.43 | 1.29 ± 0.37 | 1.29 ± 0.25 | 4.62 ± 1.9 |  |
| OCC(CO)n1cnc(-c2ccc(F)cc2)c1-c1ccnc(Oc2ccccc2)n1 |  |  |  |  |  |  |  |  | LDH release cytotoxicity (0.029093 µM): -1.79 ± 1.4%; LDH release cytotoxicity (0.092 µM): -1.44 ± 0.51%; LDH release cytotoxicity (0.29093 µM): -0.719 ± 2.1%; LDH release cytotoxicity (0.92 µM): -1.96 ± 0.076%; LDH release cytotoxicity (2.9092954 µM): -2.48 ± 0.61%; LDH release cytotoxicity (9.2 µM): -2.62 ± 0.29%; LDH release cytotoxicity (29.093 µM): 0.252 ± 0.39%; LDH release cytotoxicity (92 µM): 51.2 ± 11% |
| O=C1CCC(C2CCCCC2)CC1 [4-Cyclohexylcyclohexanone] | -0.737 ± 0.094 | -0.435 ± 0.51 | -0.827 ± 0.45 | -0.822 ± 0.7 | -0.588 ± 1.1 | 0.479 ± 0.26 | 0.205 ± 0.41 | 0.739 ± 1.3 |  |
| CC1=C2CC3C(CC=C4CC(O)CCC43C)C2CCC12OC1CC(C)CNC1C2C (configuration not stated) [Cyclopamine] |  |  |  |  |  |  |  |  | LDH release cytotoxicity (0.015811 µM): -1.27 ± 1.2%; LDH release cytotoxicity (0.05 µM): -3.64 ± 1.3%; LDH release cytotoxicity (0.158114 µM): -4.31 ± 0.75%; LDH release cytotoxicity (0.5 µM): -4.01 ± 0.28%; LDH release cytotoxicity (1.58114 µM): -4.1 ± 0.11%; LDH release cytotoxicity (5 µM): -3.94 ± 0.67%; LDH release cytotoxicity (15.8114 µM): -2.45 ± 0.84%; LDH release cytotoxicity (50 µM): 0.363 ± 0.014% |
| CCOP(=S)(OCC)Oc1nc(Cl)c(Cl)cc1Cl [Chlorpyrifos] | 0.564 ± 0.48 | -0.761 ± 0.45 | -1.52 ± 0.69 | -1.1 ± 0.089 | -0.11 ± 0.44 | -0.852 ± 0.46 | -0.29 ± 0.55 | 0.964 ± 0.32 |  |
| OCC(CO)(CBr)CBr [Pentaerythritol dibromide] | -0.95 ± 0.41 | -1.43 ± 0.67 | -2.05 ± 0.21 | -2.19 ± 0.11 | -1.68 ± 0.31 | -1.56 ± 0.1 | -0.856 ± 0.31 | 0.8 ± 1.4 |  |
